Test results as given in patent publication US6274715A, “Tricyclic erythromycin derivatives” (priority 1997, dated 2001).
≈ marks a conversion by molar mass, not a printed value.

Experiments:
Format in all cases: cell-based
[1] = system: CANDIDA ALBICANS CCH 442; test: In vitro antibacterial activity, MIC, BHI agar dilution; conditions: C. albicans CCH 442, unit assumed
[2] = system: ESCHERICHIA COLI JUHL; conditions: E. coli JUHL; BHI agar; unit assumed
[3] = system: KLEBSIELLA PNEUMONIAE ATCC 8045; test: In vitro antibacterial activity, MIC, BHI agar dilution; conditions: K. pneumoniae ATCC 8045, unit assumed
[4] = system: PSEUDOMONAS AERUGINOSA DPHD-2862; test: as above; conditions: P. aeruginosa DPHD-2862, unit assumed
[5] = system: STAPHYLOCOCCUS AUREUS 1775; test: as above; conditions: S. aureus 1775, unit assumed
[6] = system: PROVIDENCIA STUARTII CMX 640; conditions: P. stuartii CMX 640; BHI agar; unit assumed
[7] = system: H. Influenza Dill AMP R; test: In vitro antibacterial activity against H. Influenza Dill AMP R, MIC; conditions: separate assay, unit assumed
Description: Representative compounds of the present invention were assayed in vitro for antibacterial activity as follows: Twelve petri dishes containing successive aqueous dilutions of the test compound mixed with 10 mL of sterilized Brain Heart Infusion (BHI) agar (Difco 0418-01-5) were prepared. Each plate was inoculated with 1:100 (or 1:10 for slow-growing strains, such as Micrococcus and Streptococcus) dilutions of up to 32 different microorganisms, using a Steers replicator block. The inoculated plates were incubated at 35-37° C. for 20 to 24 hours. In addition, a control plate, using BHI agar containing no test compound, was prepared and incubated at the beginning and end of each test.
After incubation, each plate was visually inspected. The minimum inhibitory concentration (MIC) was defmed as the lowest concentration of drug yielding no growth, a slight haze, or sparsely isolated colonies on the inoculum spot as compared to the growth control.
In a separate assay representative compounds of the invention were assayed in vitro for antibacterial activity against the H. Influenza Dill AMP R strain, according to the protocol described above.

[8] = system: MYCOBACTERIUM SMEGMATIS ATCC 114; test: In vitro antibacterial activity, MIC, BHI agar dilution; conditions: M. smegmatis ATCC 114, unit assumed
[9] = system: PSEUDOMONAS AERUGINOSA BMH10; test: as above; conditions: P. aeruginosa BMH10, unit assumed
[10] = system: PSEUDOMONAS AERUGINOSA 5007; test: as above; conditions: P. aeruginosa 5007, unit assumed
[11] = system: PSEUDOMONAS CEPACIA 296I; test: as above; conditions: P. cepacia 296I, unit assumed
[12] = system: PSEUDOMONAS AERUGINOSA DPHD-5263; test: as above; conditions: P. aeruginosa DPHD-5263, unit assumed
[13] = system: STAPHYLOCOCCUS AUREUS NCTC10649M; test: as above; conditions: S. aureus NCTC10649M, unit assumed
[14] = system: PSEUDOMONAS AERUGINOSA K799/61; test: as above; conditions: P. aeruginosa K799/61, unit assumed
[15] = system: STREPTOCOCCUS BOVIS A-5169; test: as above; conditions: S. bovis A-5169, unit assumed
[16] = system: STREPTOCOCCUS PYOGENES EES61; test: as above; conditions: S. pyogenes EES61, unit assumed
[17] = system: M[…] ATCC 4698; test: as above; conditions: M. luteus ATCC 4698, unit assumed
In short: (§1)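 Twelve successive aqueous dilutions of compound in Brain Heart Infusion agar were inoculated with 1:100 culture dilutions (1:10 for slow growers such as Micrococcus, Streptococcus) by Steers replicator and incubated at 35-37° C for 20 to 24 hours. MIC was the lowest concentration giving no growth, slight haze or sparse colonies versus drug-free control.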

[18] = system: M[…] ATCC 9341; test: as above; conditions: M. luteus ATCC 9341, unit assumed
In short: as §1

[19] = system: EN[…] ATCC 8043; test: as above; conditions: E. faecium ATCC 8043, unit assumed
In short: as §1

[20] = system: STR[…] 508; test: as above; conditions: S. agalactiae CMX 508, unit assumed
In short: as §1

[21] = system: STAPHYLOCOCCUS AUREUS CMX 553; test: as above; conditions: S. aureus CMX 553, unit assumed
[22] = system: ESCHERICHIA COLI DC-2; test: as above; conditions: E. coli DC-2, unit assumed
[23] = system: STAPHYLOCOCCUS AUREUS CMX 642A; test: as above; conditions: S. aureus CMX 642A, unit assumed
[24] = system: STAPHYLOCOCCUS AUREUS A5177; test: as above; conditions: S. aureus A5177, unit assumed
[25] = system: STREPTOCOCCUS PYOGENES PIU 2548; test: as above; conditions: S. pyogenes PIU 2548, unit assumed
[26] = system: ESCHERICHIA COLI SS; test: as above; conditions: E. coli SS, unit assumed
[27] = system: STREPTOCOCCUS PYOGENES 930; test: as above; conditions: S. pyogenes 930, unit assumed
[28] = system: STAPHYLOCOCCUS AUREUS A-5278; test: as above; conditions: S. aureus A-5278, unit assumed
[29] = system: ESCHERICHIA COLI H560; test: as above; conditions: E. coli H560, unit assumed
[30] = system: ESCHERICHIA COLI KNK 437; conditions: E. coli KNK 437; BHI agar; unit assumed
[31] = system: STAPHYLOCOCCUS AUREUS ATCC 6538P; test: In vitro antibacterial activity, MIC, BHI agar dilution; conditions: S. aureus ATCC 6538P, 35-37° C., 20 to 24 hours, unit assumed
[32] = system: ENTEROBACTER AEROGENES ATCC 13048; test: as above; conditions: E. aerogenes ATCC 13048, unit assumed
[33] = system: PSEUDOMONAS AERUGINOSA K799/WT; test: as above; conditions: P. aeruginosa K799/WT, unit assumed
[34] = system: STAPHYLOCOCCUS EPIDERMIDIS 3519; conditions: S. epidermidis 3519; BHI agar; unit assumed

CC[C@H]1OC(=O)[C@H](C)C(=O)[C@H](C)[C@@H](O[C@@H]2O[C@H](C)C[C@H](N(C)C)[C@H]2O)[C@](C)(OC)C[C@@H](C)C2=NC[C@H](COCc3ccccc3)N3C(=O)O[C@@]1(C)[C@H]3[C@H]2C [Example 41]
MIC [1]: > 100 µg/mL
MIC [2]: 6.2 µg/mL (≈ 8.18 µM)
MIC [3]: 25 µg/mL (≈ 33 µM)
MIC [4]: 50 µg/mL (≈ 66 µM)
MIC [5]: > 100 µg/mL
MIC [6]: 50 µg/mL (≈ 66 µM)
MIC [7]: 2 µg/mL (≈ 2.64 µM)
MIC [8]: 0.2 µg/mL (≈ 0.264 µM)
MIC [9]: 50 µg/mL (≈ 66 µM)
MIC [10]: 50 µg/mL (≈ 66 µM)
MIC [11]: 12.5 µg/mL (≈ 16.5 µM)
MIC [12]: 12.5 µg/mL (≈ 16.5 µM)
MIC [13]: 0.05 µg/mL (≈ 0.066 µM)
MIC [14]: 0.2 µg/mL (≈ 0.264 µM)
MIC [15]: ≤ 0.005 µg/mL
MIC [16]: 0.01 µg/mL (≈ 0.0132 µM)
MIC [17]: 0.1 µg/mL (≈ 0.132 µM)
MIC [18]: 0.01 µg/mL (≈ 0.0132 µM)
MIC [19]: 0.02 µg/mL (≈ 0.0264 µM)
MIC [20]: 0.02 µg/mL (≈ 0.0264 µM)
MIC [21]: 0.05 µg/mL (≈ 0.066 µM)
MIC [22]: 3.1 µg/mL (≈ 4.09 µM)
MIC [23]: 0.05 µg/mL (≈ 0.066 µM)
MIC [24]: 0.05 µg/mL (≈ 0.066 µM)
MIC [25]: 0.2 µg/mL (≈ 0.264 µM)
MIC [26]: 0.2 µg/mL (≈ 0.264 µM)
MIC [27]: > 100 µg/mL
MIC [28]: > 100 µg/mL
MIC [29]: 1.56 µg/mL (≈ 2.06 µM)
MIC [30]: 6.2 µg/mL (≈ 8.18 µM)
MIC [31]: 0.05 µg/mL (≈ 0.066 µM)

CC[C@H]1OC(=O)[C@H](C)C(=O)[C@H](C)[C@@H](O[C@@H]2O[C@H](C)C[C@H](N(C)C)[C@H]2O)[C@](C)(OC)C[C@@H](C)C2=NC3CN(CCc4cccc([N+](=O)[O-])c4)CC3N3C(=O)O[C@@]1(C)[C@H]3[C@H]2C (stereo partly drawn) [Example 120]
MIC [1]: > 100 µg/mL
MIC [2]: 50 µg/mL (≈ 60.4 µM)
MIC [3]: > 100 µg/mL
MIC [4]: > 100 µg/mL
MIC [5]: > 100 µg/mL
MIC [6]: > 100 µg/mL
MIC [32]: > 100 µg/mL
MIC [7]: 4 µg/mL (≈ 4.83 µM)
MIC [8]: 0.78 µg/mL (≈ 0.942 µM)
MIC [9]: > 100 µg/mL
MIC [10]: > 100 µg/mL
MIC [11]: 100 µg/mL (≈ 121 µM)
MIC [12]: > 100 µg/mL
MIC [13]: 0.2 µg/mL (≈ 0.242 µM)
MIC [14]: 0.78 µg/mL (≈ 0.942 µM)
MIC [15]: 0.01 µg/mL (≈ 0.0121 µM)
MIC [16]: 0.01 µg/mL (≈ 0.0121 µM)
MIC [33]: > 100 µg/mL
MIC [17]: 0.2 µg/mL (≈ 0.242 µM)
MIC [18]: 0.02 µg/mL (≈ 0.0242 µM)
MIC [19]: 0.05 µg/mL (≈ 0.0604 µM)
MIC [20]: 0.01 µg/mL (≈ 0.0121 µM)
MIC [21]: 0.2 µg/mL (≈ 0.242 µM)
MIC [22]: 50 µg/mL (≈ 60.4 µM)
MIC [23]: 0.2 µg/mL (≈ 0.242 µM)
MIC [24]: 0.2 µg/mL (≈ 0.242 µM)
MIC [25]: 0.39 µg/mL (≈ 0.471 µM)
MIC [26]: 0.39 µg/mL (≈ 0.471 µM)
MIC [34]: 0.39 µg/mL (≈ 0.471 µM)
MIC [27]: > 100 µg/mL
MIC [28]: > 100 µg/mL
MIC [29]: 50 µg/mL (≈ 60.4 µM)
MIC [30]: > 100 µg/mL
MIC [31]: 0.2 µg/mL (≈ 0.242 µM)

CC[C@H]1OC(=O)[C@H](C)C(=O)[C@H](C)[C@@H](O[C@@H]2O[C@H](C)C[C@H](N(C)C)[C@H]2O)[C@](C)(OC)C[C@@H](C)C2=NC3CN(CCN(C)C)CC3N3C(=O)O[C@@]1(C)[C@H]3[C@H]2C (stereo partly drawn) [Example 129]
MIC [1]: > 100 µg/mL
MIC [2]: 100 µg/mL (≈ 133 µM)
MIC [3]: 100 µg/mL (≈ 133 µM)
MIC [4]: > 100 µg/mL
MIC [5]: > 100 µg/mL
MIC [6]: > 100 µg/mL
MIC [32]: 100 µg/mL (≈ 133 µM)
MIC [7]: 64 µg/mL (≈ 85.3 µM)
MIC [8]: 50 µg/mL (≈ 66.7 µM)
MIC [9]: > 100 µg/mL
MIC [10]: > 100 µg/mL
MIC [11]: > 100 µg/mL
MIC [12]: > 100 µg/mL
MIC [13]: 1.56 µg/mL (≈ 2.08 µM)
MIC [14]: 1.56 µg/mL (≈ 2.08 µM)
MIC [15]: 0.05 µg/mL (≈ 0.0667 µM)
MIC [16]: 0.02 µg/mL (≈ 0.0267 µM)
MIC [33]: > 100 µg/mL
MIC [17]: 1.56 µg/mL (≈ 2.08 µM)
MIC [18]: 0.2 µg/mL (≈ 0.267 µM)
MIC [19]: 0.39 µg/mL (≈ 0.52 µM)
MIC [20]: 0.05 µg/mL (≈ 0.0667 µM)
MIC [21]: 1.56 µg/mL (≈ 2.08 µM)
MIC [22]: 50 µg/mL (≈ 66.7 µM)
MIC [23]: 1.56 µg/mL (≈ 2.08 µM)
MIC [24]: 1.56 µg/mL (≈ 2.08 µM)
MIC [25]: 3.1 µg/mL (≈ 4.13 µM)
MIC [26]: 0.78 µg/mL (≈ 1.04 µM)
MIC [34]: 1.56 µg/mL (≈ 2.08 µM)
MIC [27]: > 100 µg/mL
MIC [28]: > 100 µg/mL
MIC [29]: 50 µg/mL (≈ 66.7 µM)
MIC [30]: > 100 µg/mL
MIC [31]: 1.56 µg/mL (≈ 2.08 µM)
